In patent US9523100B2, “Pesticidal compositions and related methods” (DOW AGROSCIENCES LLC, priority 2013, dated 2016):

Columns and labels:
[1] = tested on: Sweetpotato Whitefly-Crawler (WF) (Bemisia tabaci) (BEMITA); assay: Insecticidal test for Sweetpotato Whitefly-Crawler (WF) in foliar spray assay on cotton plants; assay type: in vivo; conditions: 216 h, 200 ppm foliar spray on cotton plants, graded after 9 days, Abbott corrected % control, read-out: WF 200 ppm, % Control (or Mortality) rating
In short: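 Whitefly nymph control on egg-infested cotton (eggs laid 4–5 days pre-treatment), foliar spray at 200 ppm test compound. Live late-stage nymphs counted microscopically 9 days later at ~25 °C; control calculated by Abbott's formula relative to acetone-diluent-sprayed plants.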

[2] = tested on: Green Peach Aphid (GPA) (Myzus persicae) (MYZUPE); assay: Bioassay for Green Peach Aphid (GPA), foliar spray on cabbage seedlings; assay type: in vivo; conditions: 72 h, 200 ppm foliar spray on cabbage seedlings, graded after three days, Abbott corrected % control, read-out: GPA 200 ppm, % Control (or Mortality) rating
In short: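 Foliar spray test: 200 ppm solutions (0.025% Tween 20 in water, 20% acetone/methanol) applied to both leaf sides of aphid-infested cabbage seedlings. After 3 days at about 25° C, live aphids per plant were counted; control corrected to solvent check via Abbott's formula.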

CCN(C(=O)C1CCN(C(=O)C(F)(F)F)CC1)c1cn(-c2cccnc2)nc1Cl [FA5, N-(3-Chloro-1-(pyridin-3-yl)-1H-pyrazol-4-yl)-N-ethyl-1-(2,2,2-trifluoroacetyl)piperidine-4-carboxamide]
mortality at 200 ppm [1]: 0 to 80% | mortality at 200 ppm [2]: 80 to 100%

CCN(C(=O)C1CCN(C(=O)CCC(F)(F)F)CC1)c1cn(-c2cccnc2)nc1Cl [FA6, N-(3-Chloro-1-(pyridin-3-yl)-1H-pyrazol-4-yl)-N-ethyl-1-(4,4,4-trifluorobutanoyl)piperidine-4-carboxamide]
mortality at 200 ppm [1]: 0 to 80% | mortality at 200 ppm [2]: 80 to 100%

CCN(C(=O)C1CCN(C(=O)CCC#N)CC1)c1cn(-c2cccnc2)nc1Cl [FA7, N-(3-Chloro-1-(pyridin-3-yl)-1H-pyrazol-4-yl)-1-(3-cyanopropanoyl)-N-ethylpiperidine-4-carboxamide]
mortality at 200 ppm [1]: < 0% | mortality at 200 ppm [2]: 80 to 100%

CCN(C(=O)C1CCN(C(=O)c2cccnc2)CC1)c1cn(-c2cccnc2)nc1Cl [FA8, N-(3-Chloro-1-(pyridin-3-yl)-1H-pyrazol-4-yl)-N-ethyl-1-nicotinoylpiperidine-4-carboxamide]
mortality at 200 ppm [1]: 0 to 80% | mortality at 200 ppm [2]: 80 to 100%

CCN(C(=O)C1CCN(C(=O)C(F)(F)F)C1)c1cn(-c2cccnc2)nc1Cl (stereo not drawn) [FA9, N-(3-Chloro-1-(pyridin-3-yl)-1H-pyrazol-4-yl)-N-ethyl-1-(2,2,2-trifluoroacetyl)pyrrolidine-3-carboxamide]
mortality at 200 ppm [1]: < 0% | mortality at 200 ppm [2]: 80 to 100%

CCN(C(=O)C1CCN(C(=O)CCC(F)(F)F)C1)c1cn(-c2cccnc2)nc1Cl (stereo not drawn) [FA10, N-(3-Chloro-1-(pyridin-3-yl)-1H-pyrazol-4-yl)-N-ethyl-1-(4,4,4-trifluorobutanoyl)pyrrolidine-3-carboxamide]
mortality at 200 ppm [1]: 80 to 100% | mortality at 200 ppm [2]: 80 to 100%

CCN(C(=O)C1CCN(C(=O)CCC#N)C1)c1cn(-c2cccnc2)nc1Cl (stereo not drawn) [FA11, N-(3-Chloro-1-(pyridin-3-yl)-1H-pyrazol-4-yl)-1-(3-cyanopropanoyl)-N-ethylpyrrolidine-3-carboxamide]
mortality at 200 ppm [1]: 80 to 100% | mortality at 200 ppm [2]: 80 to 100%

CCN(C(=O)C1CCN(C(=O)c2cccnc2)C1)c1cn(-c2cccnc2)nc1Cl (stereo not drawn) [FA12, N-(3-Chloro-1-(pyridin-3-yl)-1H-pyrazol-4-yl)-N-ethyl-1-nicotinoylpyrrolidine-3-carboxamide]
mortality at 200 ppm [1]: 0 to 80% | mortality at 200 ppm [2]: 0 to 80%

CCN(C(=O)C1CN(C(=O)C(F)(F)F)C1)c1cn(-c2cccnc2)nc1Cl [FA14, N-(3-Chloro-1-(pyridin-3-yl)-1H-pyrazol-4-yl)-N-ethyl-1-(2,2,2-trifluoroacetyl)azetidine-3-carboxamide]
mortality at 200 ppm [1]: 80 to 100% | mortality at 200 ppm [2]: 80 to 100%

CCN(C(=O)C1CN(C(=O)CCC(F)(F)F)C1)c1cn(-c2cccnc2)nc1Cl [FA15, N-(3-Chloro-1-(pyridin-3-yl)-1H-pyrazol-4-yl)-N-ethyl-1-(4,4,4-trifluorobutanoyl)azetidine-3-carboxamide]
mortality at 200 ppm [1]: 80 to 100% | mortality at 200 ppm [2]: 80 to 100%

CCN(C(=O)C1CN(C(=O)CCC#N)C1)c1cn(-c2cccnc2)nc1Cl [FA16, N-(3-Chloro-1-(pyridin-3-yl)-1H-pyrazol-4-yl)-1-(3-cyanopropanoyl)-N-ethylazetidine-3-carboxamide]
mortality at 200 ppm [1]: 0 to 80% | mortality at 200 ppm [2]: 0 to 80%

CCN(C(=O)C1CN(C(=O)c2cccnc2)C1)c1cn(-c2cccnc2)nc1Cl [FA17, N-(3-Chloro-1-(pyridin-3-yl)-1H-pyrazol-4-yl)-N-ethyl-1-nicotinoyl azetidine-3-carboxamide]
mortality at 200 ppm [1]: 0 to 80% | mortality at 200 ppm [2]: 0 to 80%

CCN(C(=O)C1CCCN(C(=O)OC(C)(C)C)C1)c1cn(-c2cccnc2)nc1Cl (stereo not drawn) [FA18, tert-Butyl 3-((3-chloro-1-(pyridin-3-yl)-1H-pyrazol-4-yl)(ethyl)carbamoyl) piperidine-1-carboxylate]
mortality at 200 ppm [1]: 80 to 100% | mortality at 200 ppm [2]: 80 to 100%

CCN(C(=O)CC/C(C)=N/OCCCC(F)(F)F)c1cn(-c2cccnc2)nc1Cl [FA19, (E/Z)-N-(3-Chloro-1-(pyridin-3-yl)-1H-pyrazol-4-yl)-N-ethyl-4-((4,4,4-trifluorobutoxy)imino) pentanamide]
mortality at 200 ppm [1]: 80 to 100% | mortality at 200 ppm [2]: 0 to 80%

CCN(C(=O)CC/C(C)=N/OCCCCF)c1cn(-c2cccnc2)nc1Cl [FA20, (E/Z)-N-(3-chloro-1-(pyridin-3-yl)-1H-pyrazol-4-yl)-N-ethyl-4-((4-fluorobutoxy)imino)pentanamide]
mortality at 200 ppm [1]: 80 to 100% | mortality at 200 ppm [2]: 80 to 100%

CCN(C(=O)CC/C(C)=N/OCc1ccc(C(F)(F)F)nc1)c1cn(-c2cccnc2)nc1Cl [FA22, (E/Z)-N-(3-Chloro-1-(pyridin-3-yl)-1H-pyrazol-4-yl)-N-ethyl-4-(((6-(trifluoromethyl)pyridin-3-yl)methoxy)imino)pentanamide]
mortality at 200 ppm [1]: 80 to 100% | mortality at 200 ppm [2]: 0 to 80%

CCN(C(=O)CC/C(=N\OCCCC(F)(F)F)c1cccs1)c1cn(-c2cccnc2)nc1Cl [FA26, (E)-N-(3-Chloro-1-(pyridin-3-yl)-1H-pyrazol-4-yl)-N-ethyl-4-(thiophen-2-yl)-4-((4,4,4-trifluorobutoxy)imino)butanamide]
mortality at 200 ppm [1]: 80 to 100% | mortality at 200 ppm [2]: 0 to 80%

CCN(C(=O)CC/C(=N/OCCCC(F)(F)F)c1cccs1)c1cn(-c2cccnc2)nc1Cl [FA27, (Z)-N-(3-Chloro-1-(pyridin-3-yl)-1H-pyrazol-4-yl)-N-ethyl-4-(thiophen-2-yl)-4-((4,4,4-trifluorobutoxy)imino)butanamide]
mortality at 200 ppm [1]: 0 to 80% | mortality at 200 ppm [2]: 0 to 80%

CCN(C(=O)CC/C(=N\OCCCCC(F)(F)F)c1cccs1)c1cn(-c2cccnc2)nc1Cl [FA28, (E)-N-(3-Chloro-1-(pyridin-3-yl)-1H-pyrazol-4-yl)-N-ethyl-4-(thiophen-2-yl)-4-(((5,5,5-trifluoropentyl)oxy)imino)butanamide]
mortality at 200 ppm [1]: 0 to 80% | mortality at 200 ppm [2]: 0 to 80%

CCN(C(=O)CC/C(=N/OCCCCC(F)(F)F)c1cccs1)c1cn(-c2cccnc2)nc1Cl [FA29, (Z)-N-(3-Chloro-1-(pyridin-3-yl)-1H-pyrazol-4-yl)-N-ethyl-4-(thiophen-2-yl)-4-(((5,5,5-trifluoropentyl)oxy)imino)butanamide]
mortality at 200 ppm [1]: 80 to 100% | mortality at 200 ppm [2]: 0 to 80%

CCN(C(=O)CC/C(=N\OCC1CC(F)(F)C1)c1cccs1)c1cn(-c2cccnc2)nc1Cl [FA30, (E)-N-(3-Chloro-1-(pyridin-3-yl)-1H-pyrazol-4-yl)-4-(((3,3-difluorocyclobutyl)methoxy)imino)-N-ethyl-4-(thiophen-2-yl)butanamide]
mortality at 200 ppm [1]: 0 to 80% | mortality at 200 ppm [2]: < 0%

CCN(C(=O)CC/C(=N/OCC1CC(F)(F)C1)c1cccs1)c1cn(-c2cccnc2)nc1Cl [FA31, (Z)-N-(3-Chloro-1-(pyridin-3-yl)-1H-pyrazol-4-yl)-4-(((3,3-difluorocyclobutyl)methoxy)imino)-N-ethyl-4-(thiophen-2-yl)butanamide]
mortality at 200 ppm [1]: 0 to 80% | mortality at 200 ppm [2]: < 0%

CCN(C(=O)C1CCCCN1C(C)=O)c1cn(-c2cccnc2)nc1Cl (stereo not drawn) [FA32, 1-Acetyl-N-(3-chloro-1-(pyridin-3-yl)-1H-pyrazol-4-yl)-N-ethylpiperidine-2-carboxamide]
mortality at 200 ppm [1]: 0 to 80% | mortality at 200 ppm [2]: 0 to 80%

CCN(C(=O)CCCN1CCCC1=O)c1cn(-c2cccnc2)nc1Cl [FA33, N-(3-Chloro-1-(pyridin-3-yl)-1H-pyrazol-4-yl)-N-ethyl-4-(2-oxopyrrolidin-1-yl)butanamide]
mortality at 200 ppm [1]: 80 to 100% | mortality at 200 ppm [2]: 80 to 100%

CCN(C(=O)CCCN1CCOC1=O)c1cn(-c2cccnc2)nc1Cl [FA34, N-(3-Chloro-1-(pyridin-3-yl)-1H-pyrazol-4-yl)-N-ethyl-4-(2-oxooxazolidin-3-yl)butanamide]
mortality at 200 ppm [1]: 80 to 100% | mortality at 200 ppm [2]: 80 to 100%

CCN(C(=O)CC/C(=N/OCC(F)(F)F)c1cccs1)c1cn(-c2cccnc2)nc1Cl [FA35, (E/Z)-N-(3-Chloro-1-(pyridin-3-yl)-1H-pyrazol-4-yl)-N-ethyl-4-(thiophen-2-yl)-4-((2,2,2-trifluoroethoxy)imino)butanamide]
mortality at 200 ppm [1]: 80 to 100% | mortality at 200 ppm [2]: 0 to 80%

CCN(C(=O)CC/C(=N\OCc1ccc(C(F)(F)F)nc1)c1cccs1)c1cn(-c2cccnc2)nc1Cl [FA36, (E)-N-(3-Chloro-1-(pyridin-3-yl)-1H-pyrazol-4-yl)-N-ethyl-4-(thiophen-2-yl)-4-(((6-(trifluoromethyl)pyridin-3-yl)methoxy)imino)butanamide]
mortality at 200 ppm [1]: 0 to 80% | mortality at 200 ppm [2]: 0 to 80%

CCN(C(=O)CC/C(=N/OCc1ccc(C(F)(F)F)nc1)c1cccs1)c1cn(-c2cccnc2)nc1Cl [FA37, (Z)-N-(3-Chloro-1-(pyridin-3-yl)-1H-pyrazol-4-yl)-N-ethyl-4-(thiophen-2-yl)-4-(((6-(trifluoromethyl)pyridin-3-yl)methoxy)imino)butanamide]
mortality at 200 ppm [1]: 80 to 100% | mortality at 200 ppm [2]: 0 to 80%

CCN(C(=O)CC/C(=N\OCC1CC1(F)F)c1cccs1)c1cn(-c2cccnc2)nc1Cl (stereo not drawn) [FA38, (E)-N-(3-Chloro-1-(pyridin-3-yl)-1H-pyrazol-4-yl)-4-(((2,2-difluorocyclopropyl)methoxy)imino)-N-ethyl-4-(thiophen-2-yl)butanamide]
mortality at 200 ppm [1]: 0 to 80% | mortality at 200 ppm [2]: 0 to 80%

CCN(C(=O)CC/C(=N/OCC1CC1(F)F)c1cccs1)c1cn(-c2cccnc2)nc1Cl (stereo not drawn) [FA39, (Z)-N-(3-Chloro-1-(pyridin-3-yl)-1H-pyrazol-4-yl)-4-(((2,2-difluorocyclopropyl)methoxy)imino)-N-ethyl-4-(thiophen-2-yl)butanamide]
mortality at 200 ppm [1]: 0 to 80% | mortality at 200 ppm [2]: 0 to 80%
